Test results as given in patent publication US20260263618A1, “LIPID NANOPARTICLE FORMULATIONS AND COMPOSITIONS” (CAPSTAN THERAPEUTICS, INC., priority 2023, published 2026).

Key:
[1] = Ionizable cationic lipid in plasma, liver and spleen of NHP 24 hours after tLNP, LC/MS/MS; type: in vivo, cynomolgus macaques
Protocol: Samples were taken from cynomolgus macaques that had been intravenously administered either BF1 or F5 tLNPs (two each) at a dosage of 3 mg mRNA/kg in the preceding example. The tLNPs were conjugated to anti-C05 mentioned in Example 2 as the targeting moiety. 24 hours after administration the animals were sacrificed and plasma, liver, and spleen tissue collected from two animals in each group and assessed by mass spectrometry for presence of these ionizable cationic lipids in order to assess biodegradability and biodistribution of these ionizable cationic lipids.
Briefly, plasma was stabilized for mass spectrometry by addition of 10 μL of formic acid per mL of K2EDTA plasma. Spleen and liver tissue were homogenized in 19 parts of homogenization buffer (50:40:10 0.1% formic acid in 1:1 methanol:acetone/10 mM ammonium formate with 0.2% formic acid/dimethylformamide (DMF)) to 1 part tissue (v/w) using a Geno/Grinder® (SPEX® SamplePrep) set to two minutes at 1500 rpms.
Calibration curves and quality control samples were prepared by spiking control matrix (plasma or homogenate) with CICL1 or ALC-0315 in DMF. The extraction was performed on wet ice by adding 300 μL of crashing solvent (0.1% formic acid in 1:1 methanol:acetonitrile) to 25 μL of sample to which 50 μL of internal standard was added (1:1 isopropyl alcohol:water). The extracts were mixed for four minutes at 1500 rpms and then centrifuged at 3000×g for ten minutes. 200 μL of supernatant was transferred to a clean 96 well plate for LC/MS/MS analysis.
Chromatography was performed on a Waters XBridge BEH C8 column (130 Å, 2.5 μm, 2.1×30 mm) using the following gradient. Mobile phase A (10 mM ammonium format in water with 0.2% formic acid) was held at 20% for 0.3 minutes before being reduced to 5% over […]. This condition was held for one minute before being returned to 80% B (0.1% formic acid in 1:1 methanol:acetonitrile) in 0.1 minutes. The column was then held at 80% B for 1.4 minutes. LC flow rate was held at 0.5 mL/min and the autosampler held at 2-8° C. The mass spectrum was obtained with a triple quadrupole apparatus using atmospheric pressure ionization (Sciex).
Quantitation was performed using a 1/X2 quadratic regression using the peak area for transition 1013.6→968A (CICL1) or 766.6-748.4 (ALC-0315) over peak area of transition 1040.6→995.4 of the internal standard.

[2] = Time course of ionizable cationic lipid in plasma, spleen and liver of mice, LC-MS; type: in vivo; conditions: for plasma levels of lipid at 7 days: 2 mg/kg tLNP (F9 or BF1) targeted to mouse CD8, FIG. 13C
Protocol: To obtain more detailed data a similar experiment was conducted in mice where it was possible to obtain a time course of disappearance of the ionizable cationic lipid and the encapsulated mRNA as well. Mice were intravenously administered 2 mg/kg tLNP of composition BF1 (comprising ALC-0315) or F9 (comprising CICL1) targeted to mouse CD8 and encapsulating an anti-human CD19 CAR, and monitored through 7 days. At each timepoint, 3 mice were sacrificed, and liver, spleen, and plasma were processed for LC-MS-based detection of lipid concentration and digital PCR detection of the mRNA. In plasma, mRNA level was normalized to a known amount of mRNA spiked in a control. In spleen and liver mRNA level was normalized to mRNA for the housekeeping gene GAPDH.

[3] = Tolerability in non-human primates: liver enzymes ALT and AST; type: in vivo; conditions: ionizable cationic lipid in F9 tLNP, second NHP study
Protocol: A second study was conducted with F9 tLNP to evaluate the tolerability and engineering efficiency of (1) a single administration of a CD5-targeted tLNP (humanized 5D7 targeting antibody) with an mRNA payload encoding an anti-CD19 CAR, (2) a single administration of a CD8-targeted tLNP (chimeric RPA-T8 targeting antibody) with an mRNA payload also encoding the anti-CD19 CAR, and (3) repeat administration (3 doses) of the CD5-targeted tLNP. The CD5-targeted tLNP was administered as a single dose at 3.0 mg/kg (Group 2, n=2) or as a repeat dose of 1.0 mg/kg at 72-hour intervals (Q72h) for three doses (Group 5, n=2). […] As a control, PBS was administered (Group 1, n=1). All tLNP tested in the second study utilized composition F9. […] Clinical observations, clinical pathology, and toxicology biomarkers were evaluated to assess safety and tolerability. Pharmacological assessment was carried out by flow cytometry detection of anti-CD19 CAR in immune cell subsets in peripheral blood and tissues (spleen, bone marrow, lymph node, and liver).
A third study in NHP with F9 tLNP targeted to C08 and encapsulating an mRNA encoding an anti-CD19 CAR was also conducted and the single dose liver enzyme results of all three studies (doses ranging from 3.5 to 3.0 mg mRNA/kg) compiled into single plots of AST and ALT levels for a more global assessment (FIG. 12K).

[4] = target: signal regulatory protein α (SIRPα) (Homo sapiens, UniProt P78324); conditions: cited from earlier work
Sequence of signal regulatory protein α (SIRPα) (P78324 31-504): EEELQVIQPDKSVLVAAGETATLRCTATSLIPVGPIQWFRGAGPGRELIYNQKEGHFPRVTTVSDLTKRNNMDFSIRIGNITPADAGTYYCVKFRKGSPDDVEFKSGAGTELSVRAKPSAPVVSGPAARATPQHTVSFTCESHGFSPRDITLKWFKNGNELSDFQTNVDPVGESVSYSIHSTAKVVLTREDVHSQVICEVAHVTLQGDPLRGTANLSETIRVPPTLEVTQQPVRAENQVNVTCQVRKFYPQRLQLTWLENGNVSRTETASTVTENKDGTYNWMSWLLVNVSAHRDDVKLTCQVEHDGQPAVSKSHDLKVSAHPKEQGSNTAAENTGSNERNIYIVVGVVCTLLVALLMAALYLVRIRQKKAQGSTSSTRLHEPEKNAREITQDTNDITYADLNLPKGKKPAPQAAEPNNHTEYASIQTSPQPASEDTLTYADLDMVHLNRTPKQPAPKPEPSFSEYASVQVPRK

| concentration remaining in blood, fold greater (than CICL1) ([1]; 24 hours after 3 mg mRNA/kg tLNP, FIG. 13B) | lipid levels in spleen and liver throughout the 7 days ([2]; FIGS. 13D-E) | Compound | plasma levels of lipid at 7 days [2] | tolerability [3] | concentrations in blood, liver, and spleen relative to each other ([1]; 24 hours) | spleen concentration, fold less than for ALC-0315 ([1]; 24 hours) | amount of lipid present in blood, liver, and spleen ([1]; 24 hours after 3 mg mRNA/kg tLNP) | biodegradability compared with ALC-0315 ([1]; clearance data) | time after administration by which levels were falling in the spleen ([2]; FIG. 13D) | time after administration by which levels were falling in the liver ([2]; FIG. 13E) | binding affinity to SIRPα, fold stronger than full-length CD47 protein [4] |
| --- | --- | --- | --- | --- | --- | --- | --- | --- | --- | --- | --- |
| about 6 fold | remained almost unchanged | CCCCCCCCC(CCCCCC)C(=O)OCCCCCCN(CCCCO)CCCCCCOC(=O)C(CCCCCC)CCCCCCCC (stereo not drawn) [ALC-0315, [(4-Hydroxybutyl)azanediyl)di(hexane-6,1-diyl) bis(2-hexyldecanoate), reference compound] | still detected |  |  |  |  |  |  |  |  |
|  |  | CCCCCCCCC(=O)OCC(COC(=O)CCCCCCCC)CC(=O)OCCN(CCOC(=O)CC(COC(=O)CCCCCCCC)COC(=O)CCCCCCCC)C(=O)OCCN(C)C [CICL1] | returned to baseline | well tolerated | ≤ 2 fold | ~35 fold | only very small amounts | much more biodegradable | ≤ 1 h | ≤ 2 h |  |
|  |  | NYTCEVTELSREGKTVIELK (SEQ ID NO: 3) [CD47 peptide] |  |  |  |  |  |  |  |  | 10 fold |
